# ChEMBL document CHEMBL1157539, “Thousands of chemical starting points for antimalarial lead identification” (Nature, 2010)
# Tested on: Plasmodium falciparum
# Experiment: GSK_TCMDC: Inhibition of Plasmodium falciparum 3D7 in whole erythrocytes, using parasite LDH activity as an index of growth.
# Format: functional, organism-based
# Details: Plasmodium falciparum, 3D7
row,Structure (SMILES),XC50 [nM]
1,CCCc1cc2c3c(N)nc(N)nc3ccc2n1CC,47.7
2,COc1ccc2c(C)cc(NCCCN(C)C)nc2c1,1100
3,O=C(Nc1cccc(-c2csc(-c3nc4ccccc4[nH]3)c2)c1)c1ccncc1,256
4,O=C(N[C@H]1CCN(CCc2ccc(O[C@H]3CCNC3)c(F)c2)C1)c1ccc(Cl)c(Cl)c1,1190
5,CCc1ccccc1-c1csc(C(=O)NCC2CCN(Cc3ccc(C(C)(C)C)cc3)C2)c1 (stereo not drawn),1150
6,COc1ccccc1C(=O)C1CCCN(C(=O)c2ccccc2C(F)(F)F)C1 (stereo not drawn),602
7,CN1CCN(CCCNCc2cccc(-c3ccc(CNCCc4ccccc4)cc3)c2)CC1,781
8,N#Cc1c(F)cc(N2CCC(NCC[C@H](N)Cc3ccc(F)c(F)c3)CC2)cc1F,857
9,COc1ccc(C2C(C(=O)Nc3ccc(C)c(F)c3)c3cc(OC)c(OC)cc3C(=O)N2C)cc1 (stereo not drawn),956
10,OC(CNc1ccnc(Nc2cccc(CCN3CCOCC3)c2)n1)c1ccccc1 (stereo not drawn),594
11,Cc1cc(=NN=Cc2ccccc2Cl)c2cccc(C)c2[nH]1,705
12,CC(C)NC[C@@H](O)[C@H](Cc1ccccc1)NC(=O)c1cc2c3c(c1)c(C(C)C)cn3CCS(=O)(=O)N2C,179
13,O=C(N[C@H]1CCCC[C@H]1C(=O)O)c1ccccc1,781
14,CCNC(=O)Nc1ccc(N(C)c2ccnc(NC3CC3)n2)cc1,803
15,C=C1N(C)c2cc([N+](=O)[O-])c(N)cc2C1(C)C,486
16,COC(=O)c1cccc(CNCc2ccc(-c3ccc(-c4nc5cc(F)ccc5[nH]4)cc3)cc2)c1,237
17,Nc1nc(N)c2cc(Cc3ccc([N+](=O)[O-])cc3)cnc2n1,943
18,O=C(/C=C/c1ccc(Cl)c(Cl)c1)N1CCC(C(O)CN2CCC(c3c[nH]c4ccccc34)CC2)CC1 (stereo not drawn),859
19,COc1c(C2CCN(CCN3CCC(CNC(=O)c4ccc(-c5ccc(C#N)cc5)cc4)CC3)CC2)ccc2c1CCCC2,455
20,c1ccc(Oc2ccc(Nc3ccnc4cc(-c5csc(CN6CCCCC6)n5)ccc34)cc2)nc1,579
21,CCCCCCOc1ccccc1C(=O)NCCOc1ccc(Cl)cc1,1210
22,COc1ccc(CNC(=O)Nc2cc3cc(-c4ccc(CN5CCCC5)cc4)ccc3n3c(C)nnc23)cc1,654
23,Oc1ccc(CC2CCCN(c3nc(NCCCOc4ccccc4-c4ccccc4)nc(N4CCNCC4)n3)C2)cc1 (stereo not drawn),916
24,Cc1c(O)cccc1Nc1ccnc2ccc(C(F)(F)F)cc12,31.1
25,CC(C)NCc1cccc(-c2cccc(NC(=O)c3cccc(C#N)c3)c2)c1,823

row,Structure (SMILES),XC50 [nM]
1,O=S(=O)(NCCN1CCCC1)c1ccc(-c2ccc(CNCc3ccc(F)cc3)cc2)s1,838
2,CS(=O)(=O)CCNCc1ccc(-c2ccc3c(Nc4ccc(Oc5ccccn5)cc4)ccnc3c2)o1,715
3,COc1cccc(C(=O)C2CC2CN(C)CCC(O)c2ccc(Cl)c(Cl)c2)c1 (stereo not drawn),756
4,CN(C)Cc1ccc(-c2cc3c(-c4ccc(CN(C)C)cc4)ccnc3[nH]2)cc1,887
5,CCC(C)(C)c1ccc(S(=O)(=O)Nc2ccc(Cl)c(OCCN3CCCCC3)c2)cc1,1110
6,NCc1ccc(Nc2nccc(Nc3ccc(-c4ccccc4)cc3)n2)cc1,892
7,C/C=C1\CN2CC[C@H]1C[C@H]2[C@H](O)c1ccnc2ccc(OC)cc12,318
8,Cc1cc2c(/C=C/C(=O)NC3CCC(CCN4CCc5ccc(C#N)cc5CC4)CC3)cccc2[nH]1 (stereo not drawn),840
9,C#CCOc1ccccc1CN1CCC(N2CCc3cc(NC(=O)c4cc(C)on4)ccc32)C1 (stereo not drawn),675
10,CN(C)C(CNC(=O)c1cc(-c2ccncc2)c(-c2cc3ccccc3[nH]2)o1)c1ccccc1 (stereo not drawn),841
11,O=C(Oc1ccc(Cl)cc1C(=O)Nc1ccc([N+](=O)[O-])cc1Cl)c1ccccc1,912
12,Cc1cccc2nc(-c3ccc(-c4cccc(CNCc5cnn(-c6ccccc6)n5)c4)s3)[nH]c12,551
13,CC[C@H]1CN2CC[C@@H]1C[C@H]2[C@H](O)c1ccnc2ccc(Cl)cc12,119
14,CC(C)c1sc(N2CCN(C)CC2)nc1C(=O)NCCc1cccc(Cl)c1,1490
15,COCC(=O)N(Cc1ccccc1-c1cccc(CNCCc2ccccc2)c1)C1CCN(Cc2ccccc2)CC1,1100
16,CCCc1cc(N2CCC(N3CCCC3)CC2)nc(Nc2ccc(OC)cc2)n1,807
17,CCNc1cc(C(=O)N[C@@H](Cc2ccccc2)[C@H](O)CNC(C)(C)CCCC(C)C)cc(N2CCCC2=O)c1,827
18,CC1CCCC(Nc2noc(-c3sccc3Br)n2)C1 (stereo not drawn),689
19,Cn1c2c(c3ccccc31)CN(CCC1(c3ccc(Cl)c(Cl)c3)CN(C(=O)Cc3ccccc3)CCO1)CC2 (stereo not drawn),358
20,CC(C)C(=O)n1ncc2c3c(N)nc(N)nc3ccc21,1030
21,COc1ccc(-c2nc(NC(=O)Cc3ccc4c(c3)OCCO4)sc2C)cc1,245
22,COc1ccc(-c2cccc(NC(=O)c3cccc(C#N)c3)c2)cc1CN1CCN(C)CC1,926
23,NC(=O)c1ccccc1Nc1nc(Nc2ccc(N3CCOCC3)cc2)ncc1[N+](=O)[O-],881
24,O=C(C=Cc1cn(-c2ccccc2)nc1-c1cccs1)N1CCN(c2ccncc2)CC1,721
25,Nc1cc(-c2cccc(Cl)c2)nn1-c1ccnc2cc(Cl)ccc12,753

row,Structure (SMILES),XC50 [nM]
1,CCOc1c(CNCCCCCCNCc2ccc3ccccc3c2OCC)ccc2ccccc12,759
2,Cn1cccc1C(=O)C(=O)Nc1ccc(-c2ccc(-c3nc4cc(F)ccc4[nH]3)cc2)cc1,838
3,CC[C@H](C)CNC(=O)c1cccc(-c2ccc(CN3CCC(N4CCCC4)CC3)cc2)n1,788
4,CCNC(=O)N1CCN(c2nc(-c3ccccc3)nc(COC)c2Cc2ccc(C)cc2)CC1,989
5,Cn1nc(-c2cccc(CNC3CCc4ccccc43)c2)c2cnc(NC3CCCC3)nc21 (stereo not drawn),857
6,NC1=NC(c2ccccc2)(c2ccccc2)C(=O)N1CCOc1ccccc1,844
7,CC(Cc1ccc(OCCCCOc2ccccc2)cc1)NCCC1CCCN1C (stereo not drawn),39.7
8,CCOc1ccc(C(=O)Nc2ccc(-c3nc4ccccc4[nH]3)cc2)cc1[N+](=O)[O-],591
9,CC(C)NC(=O)c1cccc(-c2cccc(OCCN3CCSCC3c3ccccc3)c2)c1 (stereo not drawn),1010
10,CCOc1ccc2[nH]c(C)cc(=NN=Cc3ccncc3)c2c1,991
11,O=C(NCc1ccccc1)Nc1ccc(-c2ccc(-c3nc4cc(C(F)(F)F)ccc4[nH]3)cc2)cc1,671
12,Cn1c(Cc2ccccc2)nnc1Sc1ccc(C#N)c([N+](=O)[O-])c1,907
13,COc1ccc(Br)cc1/C=C/C(=O)Nc1cccc(C2CCCN(C)C2)c1 (stereo not drawn),892
14,Oc1ccc2[nH]c(-c3cccc(F)c3)nc2c1CNCc1ccccc1,916
15,CNC(=O)c1cc(Nc2nnc(-c3ccc(C)c(S(=O)(=O)NC4CCCCC4)c3)c3ccccc23)ccc1OC,904
16,COc1ccc(N2C(=O)C3C(C2=O)C2(C)c4ccccc4C3(C)c3ccccc32)c([N+](=O)[O-])c1 (stereo not drawn),720
17,CCCC(CNCc1cccc(C)c1)CNc1cc(=O)c2ccccc2[nH]1 (stereo not drawn),631
18,COc1cccc(CNCC(C)(C)c2nc(-c3ccc(Cl)c(O)c3)c(-c3ccncc3)[nH]2)c1,693
19,O=C(Nc1ccc(C(F)(F)F)cc1)NC1CCN(c2ccnc3cc(Cl)ccc23)CC1,178
20,CCCCc1ccc(C(=O)NC2CCN(C[C@H](O)c3ccnc4ccc(OC)cc34)CC2)cc1,728
21,CN1C(=CC(=O)NC(=O)c2ccccc2)C(C)(C)c2ccccc21,637
22,O=C(Nc1ccsc1)Nc1cccc(-c2cccc(-c3nc4cc(C(F)(F)F)ccc4[nH]3)c2)c1,150
23,Nc1cc(-c2ccc3c(N)nccc3c2)ccc1Cl,1540
24,CC(C)NC(=O)Cn1cc(C2CCN(CC3CCN(C(=O)/C=C/c4ccc(Cl)c(Cl)c4)CC3)CC2)c2ccccc21,1030
25,O=C(Nc1cccc(Cl)c1Cl)N[C@H]1CCN(CCCCCNC(=O)C2CC2c2ccc(Cl)c(Cl)c2)C1 (stereo partly drawn),1280

row,Structure (SMILES),XC50 [nM]
1,CCN(CC)/C(=N/C(=N)Nc1ccc(Br)cc1)NCCCCCCN/C(=N\C(=N)Nc1ccc(Br)cc1)N(CC)CC,384
2,CC(CN1CCN(C)CC1)C(=O)Nc1ccc(-c2ccc(-c3nc4ccccc4[nH]3)s2)cc1 (stereo not drawn),638
3,Fc1ccc2[nH]c(-c3cccc(-c4ccc(CN5CCN(c6ccncc6)CC5)cc4)c3)nc2c1,211
4,O=C(NCC1CC1)C1CCN(C(c2ccc(Cl)cc2)c2ccc(Cl)cc2)CC1,190
5,Cn1cncc1C(=O)Nc1ccc(-c2cccc(-c3nc4cc(F)ccc4[nH]3)c2)cc1,818
6,Nc1ncnc2nc(-c3ccc(F)cc3)cc(-c3ccc(NC(=O)c4ccccc4)cc3)c12,640
7,CCN(CCCN1CCCCC1)c1cc(C)nc(Nc2cccc(OC(F)(F)F)c2)n1,229
8,CCOC(=O)C(=CNc1ccc(Cc2cnc(N)nc2N)cc1CC)C(=O)OCC,1140
9,CCCCN(Cc1cccc(C(F)(F)F)c1Cl)c1ccc(C(O)(C(F)(F)F)C(F)(F)F)cc1,960
10,CCc1c[nH]c2c(N3CCCC3=O)cc(C(=O)N[C@@H](Cc3ccccc3)[C@H](O)CNC(C)(C)CCCC(C)C)cc12,511
11,O=C(Nc1cc(Cl)ccc1-n1cncn1)C1(c2ccccc2)CC1,455
12,Cc1ccc(C(=O)Cn2nc(-c3ccc(C)c(S(=O)(=O)N4CCCC4)c3)ccc2=O)cc1,513
13,CCn1c(-c2nonc2N)nc2c(-c3cccc(NC(=O)Nc4ccc5c(c4)CCC5)c3)ncc(OCCCN)c21,783
14,O=C(Nc1cccc(CN2CCCN(Cc3ccccc3)CC2)c1)c1cc2ccccc2s1,1200
15,COc1ccc(CN2CCC(C(=O)Nc3cccc(-c4cccc(Cl)c4)c3)CC2)cc1O,975
16,O=C(Nc1cccc(CN2CCCN(Cc3ccccc3)CC2)c1)c1ccc(Cl)c(Cl)c1,896
17,CCOc1cc(C(=O)Nc2cccnc2)ccc1-c1nc2cc(Cl)c(Cl)cc2[nH]1,1010
18,COc1ccc(CNC(=N)Nc2nc(-c3ccc(OCCCn4ccnc4)cc3)cs2)cc1,393
19,CC(CN(C)C)C(=O)Nc1cccc(-c2ccc(-c3nc4cc(F)ccc4[nH]3)cc2)c1 (stereo not drawn),653
20,COc1ccccc1C1CCN(C2CCC(NC(=O)/C=C/c3ccc(OC(F)(F)F)cc3)CC2)CC1 (stereo not drawn),1350
21,CCc1cc2c(cc1CC)CC(NC[C@@H](O)c1ccc(O)c3[nH]c(=O)ccc13)C2,1120
22,O=C(Nc1ccc(Cl)c(Cl)c1)Nc1ccccc1N1CCNCC1,709
23,COc1ccc(CCNC(C)Cc2ccc(C(=O)Nc3ccc(CC(C)NCCc4cccc(Cl)c4)cc3)cc2)cc1 (stereo not drawn),248
